How the values were obtained:
[1] = system: T47D human breast carcinoma cells; assay: Assay to Demonstrate Ability to Increase Breast Cell Proliferation ([3H]-thymidine incorporation); assay type: cell-based; details: at the concentration of the same table line, control level set at 100%
Procedure: This assay is used to measure the sex steroid effects of compounds. The activity of compounds in this assay is an indication of their potential use as replacements for naturally occuring hormones in individuals with sex hormone deficiencies.
T47D human breast carcinoma cells are grown in 96-well plates in phenol-red free nutrient media at 37° C. for 48 hours. Conditioned media is removed and replaced with fresh media containing test compounds dissolved in DMSO (0.1% final concentration) and the cells are incubated for an additional 18-20 hours at 37° C. [^3 H]-thymidine is added to each well and allowed to incorporate into DNA for 4 hours. Unlabeled thymidine is then added to terminate the reaction, and the cultures are then washed, trypsinized and harvested. The amount of [^3 H]-thymidineincorporated into DNA is determined by liquid scintillation. Data for each well are expressed as a percent above control level, which is set at 100%. The concentration at which maximal deviation from control is found and the magnitude of that percent deviation is reported. Table T lists the data for some of the compounds of this invention.

[2] = target: T1, Progestin Receptor (Oryctolagus cuniculus, UniProt P06186); assay: Progestin Receptor Binding (competitive binding, 3H-promegestone, rabbit uterus receptor preparation); set-up: species or system New Zealand rabbits; details: 3H-promegestone displacement, 4° C., 18 h
T1 construct: The high speed supernatant fraction was used as the receptor preparation; from tissue; host or cells: uterus of New Zealand rabbits, 200,000×g supernatant (cytosol)
T1 sequence (P06186 1-930): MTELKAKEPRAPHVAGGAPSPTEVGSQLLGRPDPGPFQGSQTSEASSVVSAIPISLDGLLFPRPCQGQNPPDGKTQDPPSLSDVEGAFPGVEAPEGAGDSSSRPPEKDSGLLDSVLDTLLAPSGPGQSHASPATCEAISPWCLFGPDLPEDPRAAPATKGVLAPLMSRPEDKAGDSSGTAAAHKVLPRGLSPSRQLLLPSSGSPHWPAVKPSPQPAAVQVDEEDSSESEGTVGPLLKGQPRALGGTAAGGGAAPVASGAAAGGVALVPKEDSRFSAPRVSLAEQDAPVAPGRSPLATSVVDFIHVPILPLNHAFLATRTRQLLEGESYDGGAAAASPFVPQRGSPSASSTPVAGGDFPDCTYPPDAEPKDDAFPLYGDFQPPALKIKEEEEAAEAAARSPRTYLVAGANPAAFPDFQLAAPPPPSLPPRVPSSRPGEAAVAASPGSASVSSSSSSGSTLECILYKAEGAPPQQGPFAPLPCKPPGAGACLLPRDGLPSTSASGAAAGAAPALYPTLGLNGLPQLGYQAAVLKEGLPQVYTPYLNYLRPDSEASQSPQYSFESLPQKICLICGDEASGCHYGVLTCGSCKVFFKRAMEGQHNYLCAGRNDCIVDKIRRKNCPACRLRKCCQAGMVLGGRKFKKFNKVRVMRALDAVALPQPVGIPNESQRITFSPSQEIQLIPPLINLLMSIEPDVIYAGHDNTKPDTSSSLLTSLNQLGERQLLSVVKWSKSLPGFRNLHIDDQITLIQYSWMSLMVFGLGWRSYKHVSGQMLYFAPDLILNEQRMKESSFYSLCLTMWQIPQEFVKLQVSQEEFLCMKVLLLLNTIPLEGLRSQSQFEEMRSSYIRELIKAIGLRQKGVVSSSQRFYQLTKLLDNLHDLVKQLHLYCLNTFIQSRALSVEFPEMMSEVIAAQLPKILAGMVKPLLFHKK
Procedure: Progestin Receptor Binding
The procedure used was essentially that of J. L. McGuire, C.
Uteri from New Zealand rabbits (1.5 to 2.5 kg) were placed in a cold buffer A (0.01 mol Tris-HCl, pH 8.0, 0.001 mol EDTA, 0.25 mol sucrose). The uteri were minced, washed and homogenized in cold buffer A. The homogenate (2 g wet tissue/mL buffer) was centrifuged at 200,000×g for 1 h at 4° C. The high speed supernatant fraction was used as the receptor preparation.
A competitive binding assay was performed by mixing 3H-promegestone with the receptor preparation and adding a known amount of unlabeled compound. This mixture was incubated at 4° C. for 18 h. The compounds bound to the receptor were separated from those which were free in solution using dextran coated charcoal and the amount of isotope bound to the receptor was determined by scintillation counting. The extent of the compound's interaction with the receptor is measured as the percent reduction in the total isotope bound caused by the unlabeled test compound as compared to the control levels. The receptor screen consists of measuring the reduction in the total isotope bound caused by the unlabeled test compound at […] final concentrations.

[3] = system: endometrial proliferation; assay: Assay to Determine Effect of Compound on Uterine Proliferation (Clauberg Test); assay type: in vivo, immature female white rabbits; details: 40 mg/kg subcutaneously; scale 0 (no response)-4 (maximum response); estradiol-primed immature rabbits, daily for five days
Procedure: Assay to Determine Effect of Compound on Uterine Proliferation
The procedure used was essentially that of M. K. McPhail, J. Physiology, 83, 145 (1934). Groups of immature female white rabbits (750-950 g) were primed with a daily subcutaneous injection, for 6 days, with 5 micrograms of 17β-estradiol in 0.2 ml of sesame oil. Starting on the 7th day, they received the test compound daily for five days in the appropriate vehicle. The rabbits were sacrificed approximately 24 hours after the last administration, and the uteri were excised, cleaned and weighed. Portions of both uterine horns were fixed in 10% neutral formalin, sectioned at […] and stained with hematoxylin and eosin. Progestational activity was assessed as in the McGinty Test. The evaluation for endometrial proliferation was made according to a McPhail Index. Each slide was graded for each rabbit on a 0 (no response)-4 (maximum response) scale.

Molecule | IC50 [2] [nM] | % control (magnitude of maximal deviation from control) [1] [%] | McPhail Index [3]
COc1cc2c(cc1[N+](=O)[O-])C(C)C(O[N+](=O)[O-])C1c3ccccc3CC1(C)C2 (centres unmarked) [Compound 81, 5-(6,11a,-Dimethyl-9-methoxy-8-nitro-4b,5,6,11,11a,12-hexahydro)dibenz[a,f]azulenyl nitrate ester] | 82 | 56 | 
CCC12Cc3ccccc3C(C)CC1c1ccccc1C2 (centres unmarked) [Compound 53] | 57 | 50 | 
COc1ccc2c(c1)CC1(C)Cc3cc(F)ccc3C1=CC2C (centres unmarked) [Compound 30, 2-Fluoro-6,11,11a,12-tetrahydro-9-methoxy-6,11a-dimethyldibenz[a,f]azulene] | 6 | 204 | 
COc1ccc2c(c1)CC1(C)Cc3cc(OC)ccc3C1C(O)C2C (centres unmarked) [Compound 78] |  | 112 | 
CCC[C@]12Cc3ccccc3C1=C[C@@H](C)c1ccc(OC)cc1C2 (relative stereo) [Compound 38] | 25 | 189 | 4
COc1ccc2c(c1)CC1(C)Cc3cc(OC)ccc3C1=CC2 (centres unmarked) [Compound 34, 6,11,11a,12-Tetrahydro-2,9-dimethoxy-11a-methyl-dibenz[a,f]azulene] | 425 |  | 
CC[C@]12Cc3ccccc3C1=C[C@@H](C)c1ccc(OC)cc1C2 (relative stereo) [Compound 17] | 160 |  | 
CC1CC2c3ccccc3CC2(C)Cc2cc(OCCN(C)C)ccc21 (centres unmarked) [Compound 51] | 410 |  | 
CCC12Cc3cc(OC)ccc3CC=C1c1ccccc1C2 (centres unmarked) [Compound 43] | 57 | 151 | 
CC[C@]12Cc3ccccc3C1C[C@@H](C)c1ccc(O)cc1C2 (some centres unmarked) [Compound 46] | 65 |  | 
COc1ccc2c(c1)C[C@@]1(C)Cc3cc(F)ccc3[C@H]1C[C@H]2C (relative stereo) [Compound 47] | 25 |  | 
CCCC12Cc3cc(OC)ccc3CC=C1c1ccccc1C2 (centres unmarked) [Compound 27] | 27 | 224 | 
4b,5,6,11,11a,12-Hexahydro-7-methoxy-6,11a-dimethyldibenz-[a,f]azulene [Compound 109] | 1250 |  | 
CC[C@]12Cc3cc(OC)ccc3C1=C[C@@H](C)c1ccc(OC)cc1C2 (relative stereo) [Compound 22] | 421 |  | 
COc1ccc2c(c1)CC1(C)Cc3cc(F)ccc3C1C(O)C2C (centres unmarked) [Compound 45] | 115 | 191 | 

Continued, in another order:

IC50 [2] [nM] | Molecule | % control (magnitude of maximal deviation from control) [1] [%] | McPhail Index [3]
34 | CC1CC2c3ccccc3CC2(C)Cc2cc(F)ccc21 (centres unmarked) [Compound 88, 6,11a-Dimethyl-9-fluoro-4b,5,6,11,11a,12-hexahydrodibenz[a,f]azulene] | 187 | 
6 | CC(=O)Oc1cccc2c1CC=C1c3ccc(F)cc3CC1(C)C2 (centres unmarked) [Compound 113] | 470 | 
55 | CC1CC2c3ccc(F)cc3CC2(C)Cc2cc(Oc3nnnn3-c3ccccc3)ccc21 (centres unmarked) [Compound 63, 6,11a-Dimethyl-2-fluoro-9-(1-phenyl-5-tetrazolyl)-oxy-4b,5,6,11,11a,12-hexahydrodibenz[a,f]azulene] | 94 | 
93 | COc1ccc2c(c1)CC1(C)Cc3cccc(OC(C)=O)c3CC=C21 (centres unmarked) [Compound 117] | 160 | 
19 | CCC[C@]12Cc3ccccc3C1=C[C@@H](C)c1ccc(N)cc1C2 (relative stereo) [Compound 85] | 215 | 
541 | CC1CC2c3ccc(F)cc3CC2(C)Cc2cc(OCCN(C)C)ccc21 (centres unmarked) [Compound 55, 6,11a-Dimethyl-9-(N,N'-dimethylamino)ethoxy-2-fluoro-4b,5,6,11,11a,12-hexahydro-6,11a-dimethyldibenz[a,f]-azulene] |  | 
365 | COc1cc2c(cc1C(C)=O)C(C)CC1c3ccccc3CC1(C)C2 (centres unmarked) [Compound 61, 8-Acetyl-4b,5,6,11,11a,12-hexahydro-6,11a-dimethyl-9-methoxydibenz[a,f]azulene] |  | 
42 | Cc1ccc2c(c1)CC1(C)Cc3ccccc3C1=CC2 (centres unmarked) [Compound 70] | 173 | 
161 | CCC[C@]12Cc3ccccc3C1=C[C@@H](C)c1ccc(NC(C)=O)cc1C2 (relative stereo) [Compound 84] |  | 
100 | CCC[C@]12Cc3cc(F)ccc3[C@H]1CCc1c(cccc1OC)C2 (relative stereo) [Compound 73] |  | 
60 | CC12Cc3ccccc3C1CCc1c(F)cccc1C2 (centres unmarked) [Compound 98] |  | 
90 | CCC[C@]12Cc3ccccc3C1=C[C@@H](C)c1ccc(I)cc1C2 (relative stereo) [Compound 99] |  | 
